Experiment [1] relates to HeLa cells (tumor spheroids). The experiment is described as follows: Lectin-Cy3 binding to tumor spheroids pre-treated with rhamnose-pHLIP constructs (fluorescence confocal imaging). The experiment is classed as cell-based. To be noted: HeLa spheroids pre-treated with 0-2 μM construct at pH 6.3, 37° C., 30 min, washed; then Lectin-Cy3 at pH 7.4; compared with lectin-Cy3 alone. As to the method:
Induction of an immunological response requires a proper positioning of carbohydrate epitope at the surface of tumor cells. This was verified on 3-D tumor cancer cell culture (tumor spheroids). Briefly, a 2% agarose solution was made by dissolving in pH 7.4 PBS. 150 μL of the solution is pipetted into each well of a 48-well flat bottom tissue culture plate. After the agarose gel sufficiently settled (˜1 h), 150 μL of DMEM supplemented with 10% FBS and ciprofloxacin.HCl was added to each well. The covered plate was left in a humidified atmosphere at 37° C. and 5% CO2 in cell culture incubator for 24 h. On the next day, the excess medium was removed from the agarose layer. HeLa cells (10,000 cells) in 200 μL of DMEM containing 2% matrigel were added into each well and incubated for 3-4 days to allow the formation of spheroids. Matrigel was dissolved on ice overnight and added in ice cold DMEM at a concentration of 2.5% (to obtain a final concentration of 2% once added to the wells). Then the mixture was heated to 37° C. before being combined with the cells. Tumor spheroids were incubated in 50 μL of PBS buffer, pH 6.3 containing 0-2 μM Rha-pHLIP® or Rha-PEG12-pHLIP® in a humidified atmosphere of 5% CO2 at 37° C. for 30 min. After treatment, the spheroids were washed several times in 1 mL of PBS. […]

Experiment [2] relates to B16-F10 melanoma murine cancer cells (flank tumor). Briefly: B16-F10 melanoma tumor weight in tri-Gal-immunized A3galt2-knockout mice after IP treatment. It counts as in vivo. The following applies: B16-F10 flank tumors, IP injections 450 μl of 80 μM for 10 consecutive days (total 60 mg/kg), versus non-treated control group. The text has this: Mice deficient in α1-3 gylactosyltransferase 2 (A3galt2) on 129/SvEv-[…] background heterozygous breeding pairs was obtained from Taconic Biosciences. The knockout mouse model is described in the article entitled “Normal development and function of invariant natural killer T cells in mice with isoglobotrihexosylceramide (iGb3) deficiency” by Porubsky et al. PNAS 2007 Apr. 3; 104(14): 5977-5982, incorporated herein by reference in its entirety.
All animal studies with the Gal-pHLIP® construct were conducted according to the animal protocol AN1920-003 approved by the Institutional Animal Care and Use Committee at the University of Rhode Island, in compliance with the principles and procedures outlined by the National Institutes of Health for the care and use of animals. Homo- and heterozygous A3galt2-knockout female and male mice on 129/SvEv-C57BL/6J background were used in the study.
First, immunization of mice was performed to develop antibodies against tri-Gal epitope. Briefly, at day 1 mice were immunized with Galα1-3Galβ1-4Glc-HSA (HSA: human serum albumin) from Dextra Laboratories, 20 μg/mouse emulsified in complete Freund's adjuvant. Booster injections of Galα1-3Galβ1-4Glc-HSA emulsified in incomplete Freund's adjuvant were administered at days 13, 20 and 27. […]

Primed or numbered codes have the meaning given here. Where no end group is shown, it is not given here. Side-chain parts run from the residue outwards. maleimide = maleimide group (rhamnose-PEG12-maleimide) coupled to the N-terminal Cys of the peptide; PEG12′ = polyethylene glycol spacer of 12 units; Rha = rhamnose

Consider “AS(Rha)DDQNPWRAYLDLLFPTDTLLLDLLWA [Rha-pHLIP®]”, for which, in experiment [1], the “binding of lectin-Cy3 (fluorescence) to tumor spheroids” value is on record as “much stronger binding of lectin-Cy3”.

“Rha-PEG12-pHLIP®: Rhamnose-PEG12-malemide coupled with single Cys at N-terminal end of pHLIP® ACDDQNPWRAYLDLLFPTDTLLLDLLWA (SEQ ID NO: 469) (AC([maleimide-PEG12′-Rha])DDQNPWRAYLDLLFPTDTLLLDLLWA)”: in experiment [1], the “binding of lectin-Cy3 (fluorescence) to tumor spheroids” value was “much stronger binding of lectin-Cy3”.

Consider “tri-Gal-PEG4-pHLIP®: tri-Gal-PEG4 (Galα(1,3)Galβ(1,4)Glc-PEG4) coupled with pHLIP® ACDDQNPWRAYLDLLFPTDTLLLDLLWA (SEQ ID NO: 469) (not fully specified (residue 2); also: tri-Gal-PEG4 (Galα(1,3)Galβ(1,4)Glc-PEG4) coupled, site not given here)”, for which the tumor weight reduction entry in experiment [2] is “About 65%”.
